# According to patent publication US11891388B2 (Incyte Corporation, priority 2016, dated 2024):
# Biological target: HPK1 (Homo sapiens, UniProt Q92918)
# Experiment: HPK1 Kinase Binding Assay
# Conditions: LanthaScreen tracer 222 binding, active HPK1, one hour incubation at 25° C.
# Protocol: A stock solution of 1 mM test compound was prepared in DMSO. The compound plate was prepared by 3-fold and 11-point serial dilutions. 0.1 μL of the compound in DMSO was transferred from the compound plate to the white 384 well polystyrene plates. The assay buffer contained 50 mM HEPES, pH 7.5, 0.01% Tween-20, 5 mM MgCl2, 0.01% BSA, and 5 mM DTT. 5 μl of 4 nM active HPK1 (SignalChem M23-11G) prepared in the buffer was added to the plate. The enzyme concentration given was based on the given stock concentration reported by the vender. 5 μl of 18 nM tracer 222 (ThermoFisher PV6121) and 4 nM LanthaScreen Eu-Anti GST antibody (ThermoFisher PV5595) were added. After one hour incubation at 25° C., the plates were read on a PHERAstar FS plate reader (BMG Labtech). Ki values were determined.
row,SMILES,Ki
1,"CN1CCN(c2ccc(-c3n[nH]c4ccc(-c5ccccc5)nc34)cc2)CC1 [Example 1, 3-(4-(4-Methylpiperazin-1-yl)phenyl)-5-phenyl-1H-pyrazolo[4,3-b]pyridine]",100 to 500 nM
2,COc1ccccc1-c1ccc2[nH]nc(-c3ccc(N4CCN(C)CC4)cc3)c2n1 [Example 2],100 to 500 nM
3,"CN1CCN(c2ccc(-c3n[nH]c4ccc(-c5ccccc5O)nc34)cc2)CC1 [Example 14, 2-(3-(4-(4-Methylpiperazin-1-yl)phenyl)-1H-pyrazolo[4,3-b]pyridin-5-yl)phenol]",100 to 500 nM
4,"CN1CCN(c2ccc(-c3n[nH]c4ccc(-c5cccc6c5OCC6)nc34)cc2)CC1 [Example 15, 5-(2,3-Dihydrobenzofuran-7-yl)-3-(4-(4-methylpiperazin-1-yl)phenyl)-1H-pyrazolo[4,3-b]pyridine]",100 to 500 nM
5,"CN1CCN(c2ccc(-c3n[nH]c4ccc(-c5cccc6c5OCCO6)nc34)cc2)CC1 [Example 16, 5-(2,3-Dihydrobenzo[b][1,4]dioxin-5-yl)-3-(4-(4-methylpiperazin-1-yl)phenyl)-1H-pyrazolo[4,3-b]pyridine]",100 to 500 nM
6,"CNC(=O)c1cccc(-c2ccc3[nH]nc(-c4ccc(N5CCN(C)CC5)cc4)c3n2)c1 [Example 17, N-Methyl-3-(3-(4-(4-methylpiperazin-1-yl)phenyl)-1H-pyrazolo[4,3-b]pyridin-5-yl)benzamide]",100 to 500 nM
7,"CN1CCN(c2ccc(-c3n[nH]c4ccc(-c5cccc(N(C)C)c5)nc34)cc2)CC1 [Example 18, N,N-Dimethyl-3-(3-(4-(4-methylpiperazin-1-yl)phenyl)-1H-pyrazolo[4,3-b]pyridin-5-yl)aniline]",500 to 10000 nM
8,"COC(=O)c1ccccc1-c1ccc2[nH]nc(-c3ccc(N4CCN(C)CC4)cc3)c2n1 [Example 20, Methyl 2-(3-(4-(4-methylpiperazin-1-yl)phenyl)-1H-pyrazolo[4,3-b]pyridin-5-yl)benzoate]",500 to 10000 nM
9,"CC(=O)Nc1ccccc1-c1ccc2[nH]nc(-c3ccc(N4CCN(C)CC4)cc3)c2n1 [Example 21, N-(2-(3-(4-(4-Methylpiperazin-1-yl)phenyl)-1H-pyrazolo[4,3-b]pyridin-5-yl)phenyl)acetamide]",500 to 10000 nM
10,"CN1CCN(c2ccc(-c3n[nH]c4ccc(-c5ccccc5-c5ccccc5)nc34)cc2)CC1 [Example 22, 5-(Biphenyl-2-yl)-3-(4-(4-methylpiperazin-1-yl)phenyl)-1H-pyrazolo[4,3-b]pyridine]",100 to 500 nM
11,"CN1CCN(c2ccc(-c3n[nH]c4ccc(-c5ccncc5)nc34)cc2)CC1 [Example 25, 3-(4-(4-Methylpiperazin-1-yl)phenyl)-5-(pyridin-4-yl)-1H-pyrazolo[4,3-b]pyridine]",100 to 500 nM
12,"CN1CCN(c2ccc(-c3n[nH]c4ccc(-c5ccc(=O)n(C)c5)nc34)cc2)CC1 [Example 30, 1-Methyl-5-(3-(4-(4-methylpiperazin-1-yl)phenyl)-1H-pyrazolo[4,3-b]pyridin-5-yl)pyridin-2(1H)-one]",500 to 10000 nM
13,"CN1CCN(c2ccc(-c3n[nH]c4ccc(-c5cccc6ncccc56)nc34)cc2)CC1 [Example 36, 5-(3-(4-(4-Methylpiperazin-1-yl)phenyl)-1H-pyrazolo[4,3-b]pyridin-5-yl)quinoline]",100 to 500 nM
14,"CN1CCN(c2ccc(-c3n[nH]c4ccc(-c5cccc6c5CC(=O)N6)nc34)cc2)CC1 [Example 38, 4-(3-(4-(4-Methylpiperazin-1-yl)phenyl)-1H-pyrazolo[4,3-b]pyridin-5-yl)indolin-2-one]",100 to 500 nM
15,"CN1CCN(c2ccc(-c3n[nH]c4ccc(-c5cccc6c5ccn6C)nc34)cc2)CC1 [Example 39, 5-(1-Methyl-1H-indol-4-yl)-3-(4-(4-methylpiperazin-1-yl)phenyl)-1H-pyrazolo[4,3-b]pyridine]",100 to 500 nM
16,"CCc1cn2cccc(-c3ccc4[nH]nc(-c5ccc(N6CCN(C)CC6)cc5)c4n3)c2n1 [Example 45, 5-(2-Ethylimidazo[1,2-a]pyridin-8-yl)-3-(4-(4-methylpiperazin-1-yl)phenyl)-1H-pyrazolo[4,3-b]pyridine]",100 to 500 nM
17,"CN1CCN(c2ccc(-c3n[nH]c4ccc(-c5cccc6c5CCC6NCCO)nc34)cc2)CC1 (centres unmarked) [Example 49, 2-(4-(3-(4-(4-Methylpiperazin-1-yl)phenyl)-1H-pyrazolo[4,3-b]pyridin-5-yl)-2,3-dihydro-1H-inden-1-ylamino)ethanol]",≤ 100 nM
18,"Fc1ccccc1-c1ccc2[nH]nc(-c3ccccc3)c2n1 [Example 51, 5-(2-Fluorophenyl)-3-phenyl-1H-pyrazolo[4,3-b]pyridine]",500 to 10000 nM
19,"Fc1ccccc1-c1ccc2[nH]nc(-c3ccncc3)c2n1 [Example 52, 5-(2-Fluorophenyl)-3-(pyridin-4-yl)-1H-pyrazolo[4,3-b]pyridine]",500 to 10000 nM
20,"CNC(=O)c1ccc(-c2n[nH]c3ccc(-c4ccccc4F)nc23)cc1 [Example 53, 4-(5-(2-Fluorophenyl)-1H-pyrazolo[4,3-b]pyridin-3-yl)-N-methylbenzamide]",100 to 500 nM
21,Cn1cc(-c2n[nH]c3ccc(-c4ccccc4F)nc23)cn1 [Example 54],100 to 500 nM
22,"CN1CCN(C(=O)c2ccc(-c3n[nH]c4ccc(-c5ccccc5F)nc34)cc2)CC1 [Example 56, (4-(5-(2-Fluorophenyl)-1H-pyrazolo[4,3-b]pyridin-3-yl)phenyl)(4-methylpiperazin-1-yl)methanone]",500 to 10000 nM
23,"O=C(Nc1ccccc1)c1ccc(-c2n[nH]c3ccc(-c4ccccc4F)nc23)cc1 [Example 57, 4-(5-(2-Fluorophenyl)-1H-pyrazolo[4,3-b]pyridin-3-yl)-N-phenylbenzamide]",500 to 10000 nM
24,"Fc1ccccc1-c1ccc2[nH]nc(-c3cnn(C4CCNCC4)c3)c2n1 [Example 58, 5-(2-Fluorophenyl)-3-(1-(piperidin-4-yl)-1H-pyrazol-4-yl)-1H-pyrazolo[4,3-b]pyridine]",100 to 500 nM
25,"CS(=O)(=O)N1CCC(n2cc(-c3n[nH]c4ccc(-c5ccccc5F)nc34)cn2)CC1 [Example 59, 5-(2-Fluorophenyl)-3-(1-(1-(methylsulfonyl)piperidin-4-yl)-1H-pyrazol-4-yl)-1H-pyrazolo[4,3-b]pyridine]",500 to 10000 nM
26,"CC(=O)N1CCC(n2cc(-c3n[nH]c4ccc(-c5ccccc5F)nc34)cn2)CC1 [Example 60, 1-(4-(4-(5-(2-Fluorophenyl)-1H-pyrazolo[4,3-b]pyridin-3-yl)-1H-pyrazol-1-yl)piperidin-1-yl)ethanone]",500 to 10000 nM
